These results are taken from US20160310463A1, “LIQUID STATIN FORMULATION” (priority 2009, published 2016).

Structures can show the parent of a compound that is named as a salt. Where two headings read alike, the source gives them in different places.

For data set [1] the following is noted: cited from earlier work.
For data set [2] the following is noted: pH of 7.0; cited from earlier work.
Data set [3] deals with adrenocortical and testicular steroidogenesis. The note with it: males age 18-50 years, long-term therapy, cited from earlier work.
For data set [4] the following is noted: adults; estimate for the five statins together; cited from earlier work.
Data set [5] has as its system HeFH children and adolescents. The note with it: 5 mg and 10 mg pravastatin; cited from earlier work.
Data set [6] deals with testicular endocrine function. The note with it: dogs, very high doses; cited from earlier work.
The subject of data set [7] is adrenal and gonadal steroidogenesis. The note with it: humans, up to 80 mg/day, basal conditions; cited from earlier work.
Data set [8] has as its system children and adolescents. The note with it: cited from earlier work.
In data set [9] the test system is children with HeFH. Kind of data set: Dirisamer et al.: low-dose simvastatin in children with HeFH. It is filed as in vivo, human. The protocol:
If the range of LDL-C of 150-170 mg/dl was not reached within the first 8 weeks, the daily dosage was increased stepwise up to 20 mg. The cut-off level for LDL-C<170 mg/dl (range 150-170 mg/dl) was determined according to the high mean concentrations of LDL-C of the study population.

Data set [10] is described as follows: Simvastatin solubility screening, visual observation. The note with it: for Visual Appearance: 23° C. It is filed as physicochemical. As to the method:
The study was performed by visual observation of the samples at various time points followed by chemical testing of the centrifuged supernatant. Ten vehicles chosen for the solubility screen are referenced in Table 2 below. One (1 g) of each vehicle was dispensed into an Eppendorf tube. […] Samples not visually soluble, after about 21 hours, were heated to 60° C. while being mixed for 1 hour. Samples were allowed to reach room temperature, and visual observations were recorded. All samples were centrifuged for 10 minutes at 10,000 RPM.

In data set [11] the test system is children younger than 17 years of age with hyperlipidemia. The note with it: mean dosage 16 mg once daily, cited from earlier work.
Data set [12] relates to children with HeFH. The note with it: cited from earlier work.
In data set [13] the test system is pediatric HeFH patients. The note with it: cited from earlier work.

With `CC(C)c1nc(N(C)S(C)(=O)=O)nc(-c2ccc(F)cc2)c1/C=C/C(O)C[C@@H](O)CC(=O)O` (stereo in doubt) [Rosuvastatin calcium, bis[(E)-7-[4-(4-fluorophenyl)-6-isopropyl-2-[methyl(methylsulfonyl)amino]pyrimidin-5-yl](3R,5S)-3,5-dihydroxyhept-6-enoic acid] calcium salt], the solubility entry was “slightly soluble” in data set [1] (in ethanol); “sparingly soluble” in data set [1] (in water and methanol). Moreover, the “partition coefficient (octanol/water)” value in [2] is on record as 0.13.

For the compound `COCc1c(C(C)C)nc(C(C)C)c(/C=C/[C@@H](O)C[C@@H](O)CC(=O)O)c1-c1ccc(F)cc1` [Cerivastatin sodium], the solubility entry is recorded as “very slightly soluble” in data set [1] (in acetone); “soluble” in data set [1] (in water, methanol, and ethanol).

Turning to `CC[C@H](C)C(=O)O[C@H]1C[C@H](O)C=C2C=C[C@H](C)[C@H](CC[C@@H](O)C[C@@H](O)CC(=O)O)[C@H]21` [Pravastatin, (bR,dR,1S,2S,6S,8S,8aR)-1,2,6,7,8,8a-Hexahydro-b,d,6-trihydroxy-2-methyl-8-[(2S)-2-methyl-1-oxobutoxy]-1-naphthaleneheptanoic acid monosodium salt], the “interference with adrenal and testicular steroidogenesis” value in data set [3] (maximum stimulation) is on record as “did not interfere”. In addition, the serum testosterone levels entry in data set [3] is on record as “remained unchanged”. Moreover, the occurrence of rhabdomyolysis in [4] is listed as 3 per 100 000 person-years. In addition, the “average decrease in LDL-C concentration” value in data set [5] is recorded as 23%.

For the compound `CC[C@H](C)C(=O)O[C@H]1C[C@@H](C)C=C2C=C[C@H](C)[C@H](CC[C@@H]3C[C@@H](O)CC(=O)O3)[C@H]21` [Lovastatin, (1S,3R,7S,8S,8aR)-8-{2-[(2R,4R)-4-hydroxy-6-oxooxan-2-yl]ethyl}-3,7-dimethyl-1,2,3,7,8,8a-hexahydronaphthalen-1-yl (2S)-2-methylbutanoate], the “effect on testicular endocrine function” value in data set [6] is listed as “reduction in testicular endocrine function”. For the same compound, the “effect on adrenal and gonadal steroidogenesis” value in data set [7] was “no effect”. Besides, the occurrence of rhabdomyolysis in data set [4] is given as 3 per 100 000 person-years. Further, the figures for the LDL-C reduction in data set [8] (10 mg lovastatin) and in [8] (20 mg lovastatin) were 21% and 24%, respectively. For the same compound, in data set [8] (in vivo), the “share of the mean LDL-C reduction of the highest dose of 40 reached by the lowest dose (10 mg/day)” value is on record as “more than 50%”.

On to `CC(C)c1c(C(=O)Nc2ccccc2)c(-c2ccccc2)c(-c2ccc(F)cc2)n1CC[C@@H](O)C[C@@H](O)CC(=O)O` [Atorvastatin, (3R, 5R)-7-[2-(4-fluorophenyl)-3-phenyl-4-(phenylcarbamoyl)-5-(propan-2-yl)-1H-pyrrol-1-yl]-3,5-dihydroxyheptanoic acid], for which the occurrence of rhabdomyolysis in data set [4] is 3 per 100 000 person-years.

“[R.,S.-(E)]-(±)-7-[3-(4-fluorophenyl)-1-(1-methylethyl)-1H-indol-2-yl]-3,5-dihydroxy-6-heptenoic acid, monosodium salt [Fluvastatin]”: the occurrence of rhabdomyolysis in [4] is recorded as 3 per 100 000 person-years.

Regarding `CCC(C)(C)C(=O)O[C@@H]1C[C@H](C)C=C2C=C[C@@H](C)[C@@H](CC[C@@H]3C[C@H](O)CC(=O)O3)[C@@H]21` (relative stereo) [Simvastatin, butanoic acid, 2,2-dimethyl-,1,2,3,7,8,8a-hexahydro-3,7-dimethyl-8-[2-(tetrahydro-4-hydroxy-6-oxo-2H-pyran-2-yl)-ethyl]-1-naphthalenyl ester, [1S-[1α,3α,7β,8β(2S*,4S*),-8aβ]]], the “higher LDL-C reduction compared with other statins tested in young HeFH patients” value in data set [9] (5 mg and 10 mg simvastatin period) was approximately 10%. The “share of the mean LDL-C reduction of the highest dose (20 mg/day) reached by the lowest dose (5 mg/day)” value in data set [9] (in vivo) was “more than 70%”. Besides, the “Visual Appearance” value was “Clear colorless liquid w/ air bubbles” in [10] (2.5 mg in 1 g 5% SLS in Water, 30 Min to ~21 Hrs); “Clear colorless liquid” in data set [10] (2.5 mg in 1 g Captex 500 P, 30 Min to ~21 Hrs); “Cloudy liquid w/ white powder” in [10] (2.5 mg in 1 g E. Pure Water, 30 Min to ~21 Hrs); “Stiff clear, colorless liquid w/ white powder” in data set [10] (2.5 mg in 1 g Glycerine, Initial to ~21 Hrs); “Yellow liquid w/ white powder” in data set [10] (2.5 mg in 1 g Labrafil M 2125 CS, merged cell, Initial to about 2 Hrs); “Pale yellow liquid” in data set [10] (2.5 mg in 1 g Labrasol, 30 Min to ~21 Hrs). For the same compound, the “Visual Appearance” value is “Clear colorless liquid” in [10] (2.5 mg in 1 g PEG 400, 30 Min to ~21 Hrs); “Yellow liquid w/ white powder” in data set [10] (2.5 mg in 1 g Polysorbate 80, Initial to ~21 Hrs); “Clear colorless liquid” in data set [10] (2.5 mg in 1 g Propylene Glycol, 30 Min to ~21 Hrs). The “Visual Appearance after Application of Heat (60° C.) for 1 Hour and Cooled to Room Temperature” value is “Hazy liquid w/ white powder and air bubbles” in data set [10] (2.5 mg in 1 g E. Pure Water); “Slightly hazy liquid w/ some white powder” in data set [10] (2.5 mg in 1 g Glycerine); “Clear yellow liquid w/ some white residue” in data set [10] (2.5 mg in 1 g Polysorbate 80). The figures for the “fall of circulating LDL-C at week 104” value in data set [11] (in 1 patient), in [11] (in 7 patients) and in data set [11] (in 8 patients) were 15-20%, 40-60% and 20-40%, respectively. Also, the “patients reaching the recommended therapeutic level (LDL-C<170 mg/dl) within the first period” value in data set [12] (5 mg simvastatin daily, nine patients started with 5 mg) is listed as “four”. Also, the “percentage decrease in LDL-C concentration” value in data set [12] (5 mg simvastatin period) was 25%; in data set [12] (10 mg simvastatin period) it was 30%; in data set [12] (20 mg simvastatin period), 36%. Also, the entries for the “percentage decrease in total cholesterol” value in [12] (5 mg simvastatin period), in [12] (10 mg simvastatin period) and in data set [12] (20 mg simvastatin period) were 19%, 26% and 29%, respectively. Also, in data set [12] (10 mg simvastatin daily, 11 patients started with 10 mg), the “patients reaching the recommended therapeutic level within the first period” value was “Six”. Also, in [12] (5, 10 and 20 mg dosage periods), the “side effects that could be related to simvastatin” value was “few and equally distributed among the three dosage periods”. The “subjects with abnormal levels of routine safety parameters (CK, ALAT, GGT)” value in data set [12] (group of 20 girls and boys) is recorded as “three”. The “change in total-C, LDL-C and ApoB compared with placebo” value in [13] (at 24 weeks) is listed as “significant (P<0.001) reductions”. The “change in HDL-C and ApoA1” value in data set [13] (only significant relative to placebo at week 24 (P<0.05)) was “increased for all weeks”. For the same compound, the “results from the extension at 48 weeks” value in data set [13] (simvastatin 40 mg) is reported as “comparable to those observed in the base study”. Further, the change in triglycerides result in data set [13] (weeks 8, 16, and 48) is “Significant reductions”.
